Structures can show the parent of a compound that is named as a salt.

These results are taken from patent US8927548B2, “Triazole compounds that modulate HSP90 activity” (Synta Pharmaceuticals Corp., priority 2006, dated 2015).

One experiment concerns Her2. As to the kind of experiment: Degradation of Her2 in BT-474 cells, Method 1 (Western blot). Format: cell-based, human. As to conditions: 0.5 μM, overnight. The protocol:
Human high-Her2 breast carcinoma BT474 (HTB-20), SK-BR-3 (HTB-30) and MCF-7 breast carcinoma (HTB-22) from American Type Culture Collection, VA, USA were grown in Dulbecco's modified Eagle's medium with 4 mM L-glutamine and antibiotics ([…] penicillin and 100 μg/ml streptomycine; GibcoBRL). To obtain exponential cell growth, cells were trypsinized, counted and seeded at a cell density of 0.5×10^6 cells/ml regularly, every 3 days. All experiments were performed on day 1 after cell passage.
BT-474 cells are treated with 0.5 μM, 2 μM, or 5 μM of 17AAG (a positive control) or 0.5 μM, 2 μM, or 5 μM of a compound of the invention overnight in DMEM medium. After treatment, each cytoplasmic sample is prepared from 1×10^6 cells by incubation of cell lysis buffer (#9803, cell Signaling Technology) on ice for 10 minutes. The resulting supernatant used as the cytosol fractions is dissolved with sample buffer for SDS-PAGE and run on a SDS-PAGE gel, blotted onto a nitrocellulose membrane by using semi-dry transfer. Non-specific binding to nitrocellulose is blocked with 5% skim milk in TBS with 0.5% Tween at room temperature for 1 hour, then probed with anti-Her2/ErB2 mAb (rabbit IgG, #2242, Cell Signaling) and anti-Tubulin (T9026, Sigma) as housekeeping control protein. […]
For orientation: A western blot detects proteins with antibodies after separation by electrophoresis.

The next experiment concerns Hsp90. As to the kind of experiment: Degradation of Her2 / inhibition of Hsp90, Method 2: MV-4-11 cell survival after 72 hours (Cell Counting Kit-8). The class given is cell-based, human. As to conditions: Table 4, IC50 range, MV-4-11 cells. The protocol:
MV-4-11 cells (20,000 cells/well) were cultured in 96-well plates and maintained at 37° C. for several hours. The cells were treated with a compound of the invention or 17AAG (a positive control) at various concentrations and incubated at 37° C. for 72 hours. Cell survival was measured with Cell Counting Kit-8 (Dojindo Laboratories, Cat. # CK04). […] Tables 4-6: IC50 range of compounds of the invention for inhibition of Hsp90
Background: Formazan colour is commonly taken as a measure of viable cells.

Take `C=CCNC1=C2C[C@@H](C)C[C@H](OC)[C@H](O)[C@@H](C)/C=C(\C)[C@H](OC(N)=O)[C@@H](OC)/C=C\C=C(/C)C(=O)NC(=CC1=O)C2=O` [Compound 17AAG, 17-allylamino-17-demethoxygeldanamycin]: the “degradation of Her2” value in the experiment on Her2 is “partial degradation”.

Turning to `CC(=O)N1Cc2ccc(-n3c(O)nnc3-c3cc(C(C)C)c(O)cc3O)cc2C1` [Compound 23, 1-(5-(3-(2,4-dihydroxy-5-isopropylphenyl)-5-hydroxy-4H-1,2,4-triazol-4-yl)isoindolin-2-yl)ethanone], the IC50 – broadly, the point on the concentration scale where inhibition reaches its midpoint – with Hsp90 is under 500 nM.

As for `CC(C)c1cc(-c2nnc(O)n2-c2ccc3c(c2)CCN3C(=O)C2CCC(N)CC2)c(O)cc1O` (stereo not drawn) [Compound 39, (4-Aminocyclohexyl)(5-(3-(2,4-dihydroxy-5-isopropylphenyl)-5-hydroxy-4H-1,2,4-triazol-4-yl)indolin-1-yl)methanone hydrochloride], the concentration for half-maximal inhibition (IC50) in the experiment with Hsp90 is under 1000 nM.
